US20070293451A1, “Regulation ao ApoB by Hsp110 proteins and related compositions and methods” (University of Pittsburgh, priority 2006, published 2007)
Peptide text beside a SMILES is read from it. * marks the point of attachment. 6FAM = O=C1OC2(c3ccc(O)cc3Oc3cc(O)ccc32)c2cc(C(=O)*)ccc21; Ahx = NCCCCCC(=O)O

Key:
[1] = target: T1, full-length Sse1p (Saccharomyces cerevisiae, UniProt P32589); assay: Fluorescence anisotropy binding of labeled luciferase-derived peptide to full-length Sse1p
T1 sequence (P32589 1-693): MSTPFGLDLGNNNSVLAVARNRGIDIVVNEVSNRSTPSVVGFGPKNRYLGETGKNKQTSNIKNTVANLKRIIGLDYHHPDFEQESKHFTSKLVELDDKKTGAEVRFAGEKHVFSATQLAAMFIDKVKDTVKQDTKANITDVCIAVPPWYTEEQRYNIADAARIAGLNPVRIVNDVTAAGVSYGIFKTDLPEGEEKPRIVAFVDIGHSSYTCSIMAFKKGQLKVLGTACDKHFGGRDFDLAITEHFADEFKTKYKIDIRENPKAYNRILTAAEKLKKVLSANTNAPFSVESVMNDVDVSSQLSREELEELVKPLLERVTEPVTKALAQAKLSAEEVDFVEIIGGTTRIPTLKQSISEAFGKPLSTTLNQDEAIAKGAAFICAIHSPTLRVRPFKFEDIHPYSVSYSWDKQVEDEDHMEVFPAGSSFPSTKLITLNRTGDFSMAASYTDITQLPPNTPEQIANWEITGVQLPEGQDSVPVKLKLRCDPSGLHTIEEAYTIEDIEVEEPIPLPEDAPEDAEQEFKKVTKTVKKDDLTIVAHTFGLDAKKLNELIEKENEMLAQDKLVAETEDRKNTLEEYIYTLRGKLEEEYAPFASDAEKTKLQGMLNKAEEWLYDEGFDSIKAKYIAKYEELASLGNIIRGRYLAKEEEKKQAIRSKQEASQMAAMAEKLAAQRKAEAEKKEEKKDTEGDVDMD
Experimental: (§1) Binding was assessed by fluorescence anisotropy.

[2] = target: Sse1p peptide binding domain (Saccharomyces cerevisiae, UniProt P32589); conditions: fluorescence anisotropy
Experimental: (SEQ ID NO: 1) (which derives from firefly luciferase), assessed by fluorescence anisotropy.
as §1

[3] = system: ApoB100; assay: ApoB100 biogenesis and secretion from McArdle cells (pulse-chase) on Hsp110 over-expression; format: cell-based, rat; conditions: MTP inhibitor BMS-200150 present, without Hsp110 over-expression, data not shown
Experimental: FIGS. 9A and 9B show the effect of Hsp110 over-expression on ApoB100 secretion from McArdle cells, a standard rat hepatoma cell model of lipoprotein metabolism. ApoB100 (FIG. 9A) and albumin (FIG. 9B) biogenesis and secretion were assessed by published pulse-chase analytical methods.
An Hsp110 expression vector was obtained from Dr. John Subjeck (Roswell Park Cancer Center, N.Y.), and either that vector or a vector control was introduced into McArdle cells—a rat hepatoma cell line that also expresses full-length ApoB (that is, ApoB100). […] As a control, there was no effect on albumin secretion from these cells, regardless of whether Hsp110 was over-expressed (FIG. 9B). Furthermore, the over-expression of Hsp110 in the McArdle cells in the presence of a microsomal triglyceride transfer protein (MTP) inhibitor (BMS-200150; Jamil, H., D. A. Gordon, D. C. Eustice, C. M. Brooks, J. K. Dickson, Jr., Y. Chen, B. Ricci, C.-H. Chu, T. W. Harrity, C. P. Ciosek, Jr., S. A. Biller, R. E. Gregg, and J. R. Wetterau. 1996. An inhibitor of the microsomal triglyceride transfer protein inhibits apoB secretion from HepG2 cells. Proc Natl Acad Sci USA. 93, 11991-95) increased the percent of apoB recovered in the lysate and medium fractions from 14% to 28% (data not shown).

CC[C@H](C)[C@H](NC(=O)[C@H](CC(C)C)NC(=O)CCCCCNC(=O)c1ccc2c(c1)C1(OC2=O)c2ccc(O)cc2Oc2cc(O)ccc21)C(=O)N[C@@H](CS)C(=O)NCC(=O)N[C@@H](Cc1ccccc1)C(=O)N[C@@H](CCCNC(=N)N)C(=O)N[C@H](C(=O)N[C@H](C(=O)N[C@@H](CC(C)C)C(=O)N[C@@H](CCSC)C(=O)N[C@@H](Cc1ccc(O)cc1)C(=O)N[C@@H](CCCNC(=N)N)C(=O)N[C@@H](Cc1ccccc1)C(=O)O)C(C)C)C(C)C [6-carboxyfluorescein-aminohexanoic acid-linked-LICGFRVVLMYRF] ({6FAM-Ahx}-LICGFRVVLMYRF-OH)
Kd [1]: 2 to 3 nM
lower affinity for Sse1p peptide binding domain alone compared with Sse1p [2]: ~100 fold

O=C1c2ccccc2CN1C1CCN(CCC(c2ccccc2)c2ccccc2)CC1 [BMS-200150, reference compound]
percent of apoB recovered in the lysate and medium fractions [3]: 14%

LICGFRVVLMYRF [Unlabeled peptide, unlabeled form of the firefly luciferase-derived peptide]
competition with labeled peptide for binding ([1]; data not shown): competes for binding
